{"source": "patent US20100041603A1", "about": "“Method of Promoting Wound Healing” (Corthera, Inc., priority 2008, published 2010)", "key": {"[1]": {"system": "20×6 mm incisional wounds on the back", "experiment": "Porcine skin wound study (incisional wounds, six weeks)", "type": "in vivo, juvenile pigs", "conditions": "dose range 10-960 μg/kg/day"}, "[2]": {"system": "wounded sites", "conditions": "systemic relaxin administration in rats; cited from earlier work"}, "[3]": {"experiment": "Canine gingiva study: RLX migration and degradation after gingival injection (SELDI-TOF MS)", "type": "in vivo, dog", "conditions": "for RLX detection in gingiva away from the site of injection: 1 hr time point; for concentration of H2 RLX detected in treated dog gingiva: site of injection", "experimental": "The aim of this study was to determine the rate of RLX migration and extent of degradation after gingival injections. […] Employing a dog model, RLX was administered and tissue punch biopsies were collected at the site of injection and 0.5, 1 and 2 cm from the site of injection. Tissue was collected at several time points including 1, 2 and 4 hrs after injection. Protein was extracted from the gingival biopsies and analysed via ProteinChip technology (Surface Enhanced Laser Desorption/Ionization Time-of-Flight Mass Spectrometry, SELDI-TOF MS), which combines two well-established methods of solid phase chromatography and TOF-MS into an integrated platform. ProteinChip arrays were coated with anti-H2 RLX Ab, allowing the specific capture of RLX and associated breakdown/modified products.\nDesign of Drug. Gingival injections were administered (25 μg H2 RLX/100 μl, 41 μM) and tissue was collected at several positions including the site of injection and 0.5, 1 and 2 cm from the site of injection. Tissue was collected 1, 2 and 3 hrs after injection.\na) Protein Extraction and Quantitation. Frozen gingival biopsies were homogenized in extraction buffer (10 μl/mg tissue) containing 10 mM Tris-HCl, 10 mM NaCl, 0.1% TFA and protease inhibitor (complete mini, Roche). The extract was centrifuged (6000×g) for 10 min and the supernatant was collected, aliquoted and stored at −80° C. Total protein concentration was determined using the Bradford assay. Protein concentrations ranged from 1.4 mg/ml to 2.8 mg/ml, all samples were standardized to 1.4 mg/ml in extraction buffer.\nb) SELDI-TOF MS analysis—Analysis of RLX treated gingiva on PG20 arrays. Anti-H2 RLX Ab ([…]/0.25 mg/ml; Genentech) or control IgG (Ciphergen Biosystems) was applied to each spot of a PS20 array which had been pre-coated with Protein G (Ciphergen Biosystems). After antibody binding, the chip was washed once with PBS/0.5% Triton X-100 for 5 min with agitation (5 μl per spot), followed by two PBS washes. Dog gingiva extracts (3 μl/1.4 mg/ml) were applied to each spot and incubated for 4 hrs. Non-specifically bound proteins were removed by sequentially washing with PBS/0.5% Triton X-100, PBS and 1 mM HEPES, pH 7.2. The chips were air dried and 1 μl of 50% saturated sinapinic acid in 50% (v/v) acetonitrile, 0.5% trifluoroacetic acid was applied onto each spot twice, arrays were air dried between each application. Chips were subsequently analysed by SELDI-TOF MS (Ciphergen Biosystems) using the following settings, laser 220 and sensitivity 9.\nc) Generation of H2 RLX Std Curve on PG20 arrays. H2 RLX (batch number 11835-89) was spiked into control dog gingiva (1.4 mg/ml) at different concentrations, including 100 nM, 50 nM, 12.5 nM, 6.25 nM, 3.125 nM and 1.56 nM and analysed as described above.\nFindings. In order to quantitate the levels of RLX in the treated gingiva samples a H2 RLX standard curve was generated. The linear dynamic range was determined to be two orders of magnitude with a R^2 value of 0.9495."}, "[4]": {"system": "20×6 mm incisional wounds on the back", "experiment": "Porcine skin wound study (incisional wounds, six weeks)", "type": "in vivo, juvenile pigs", "description": "Overview of the Animal Study. In selecting the appropriate animal for this study, a pig was selected because of the anatomical similarities between pig skin and human skin. In fact, pig wound healing has been used in numerous studies to simulate human skin (Sullivan et al., Wound Repair Regen. 9: 66-76, 2001).\nDesign of Study. In this study, juvenile pigs were oriented with twelve wound sites per animal—20×6 mm incisional wounds on the back—over the course of a six week study (see FIG. 2). Systemic relaxin was delivered via mini-pumps to achieve 20 ng/mL serum concentrations. Topical formulations were prepared by Dow Pharma, and consisted of propylene glycol and ethanol, which contributed to good long term stability of the therapeutic agent. Dosages consisting of placebo, 0.5 mg/mL (low dose), and 2.5 mg/mL (high dose) were prepared. The goals of the study were to assess the safety of topical relaxin on wound healing and to determine the efficacy of relaxin as a treatment for wound healing and/or scar formation. During the first week, irrigation was performed once daily. During weeks 2-3, topical formulation was applied twice daily, and during weeks […], topical formulation was applied once daily.\nDesign of Drug The study drug was relaxin (produced by recombinant technology). Recombinant relaxin is identical to the native human hormone H2 relaxin, produced using a recombinant single chain process. The active test article may be aseptically diluted to the desired concentration with the acetate diluent (20 mM sodium acetate, pH 5.0).\nStudy Procedures. Referring to FIG. 3 which depicts the back of a pig with incisions according to the experimental design described herein at the completion of six weeks, the wound in Section 3 was irrigated with relaxin construct during the first week, and subsequently treated with high dose topical relaxin formulation during weeks 2-6 as described above. Sections 4, 5, and 6 received no irrigation during week 1. Section 4 was treated with placebo. Section 5 was treated with low dose topical formulation, and Section 6 was treated with high dose topical formulation.\nCosmetic appearance of skin. Visual rankings of wound pictures were conducted by neutral observers who evaluated scabs during early wound healing (days 5-7) and scars at the end of the study (see FIG. 4). […] The results of this visual wound assessment determined that 89% of the time a relaxin treatment group was selected in the top three. Only 11% of the time, a group not treated with relaxin was selected in the top three.\nA cosmetic score was also determined by a professional dermatologist at weeks 2, 4, and 6. The cosmetic score has five components: (1) color—matching with surrounding skin; (2) texture—no hardness; (3) distortion—no distortion of nearby skin; (4) contour—flush with surrounding skin; (5) global—no hypertrophy or keloid formation. During this dermatological assessment, evaluation at time 2 weeks was obscured by scabs, so the data for cosmetic scores was collected from evaluation at weeks 4 and 6 (see FIG. 5). […] In the bottom profile, the scar is visible.\nHistological evaluation. A professional histopathologist evaluated the pathology of the treatments for such indications as granulation, inflammation, and necrosis. In judging granulation tissue, it is considered that early response to wound includes invasion of the site by fibroblasts, inflammatory cells, and new blood vessels. Over time, this resolves to more normal tissue as the site heals. Chronic inflammation characterized by the presence of macrophages, giant cells, lymphocytes, and PMNs indicated adverse reaction. Minor factors such as keratosis (formation of keratin layer outside the epidermis) and acanthosis (thickening of the epidermal layer) are also considered. […]"}, "[5]": {"conditions": "systemic relaxin vs wounds not receiving systemic relaxin"}, "[6]": {"conditions": "systemic relaxin, six weeks, blinded assessments"}}, "note": "“Also recorded” adds a separate entry of the source."}
{"substance": "relaxin: Recombinant relaxin identical to the native human hormone H2 relaxin, produced using a recombinant single chain process", "values": [{"measurement": "adverse effects and tolerability over dose range", "setting": "[1]", "result": "no relevant adverse effects; also recorded: well-tolerated"}, {"measurement": "VEGF and bFGF transcripts at wounded sites", "setting": "[2]", "result": "upregulation"}, {"measurement": "new blood vessel formation at wounded sites", "setting": "[2]", "result": "increased new blood vessel formation"}, {"measurement": "RLX detection in gingiva away from the site of injection", "setting": "[3]; 0.5 cm from site of injection", "result": "detected"}, {"measurement": "RLX detection in gingiva away from the site of injection", "setting": "[3]; 1 cm from site of injection", "result": "not detected"}, {"measurement": "RLX detection in gingiva away from the site of injection", "setting": "[3]; 2 cm from site of injection", "result": "not detected"}, {"measurement": "RLX detection in gingiva", "setting": "[3]; remaining time points (2 and 4 hrs)", "result": "only detected at the site of injection"}, {"measurement": "concentration of H2 RLX detected in treated dog gingiva", "setting": "[3]; 1 hr after gingival injection (25 μg H2 RLX/100 μl)", "result": 90, "unit": "nM"}, {"measurement": "concentration of H2 RLX detected in treated dog gingiva", "setting": "[3]; 2 hrs after gingival injection", "result": 78, "unit": "nM"}, {"measurement": "concentration of H2 RLX detected in treated dog gingiva", "setting": "[3]; 4 hrs after gingival injection", "result": 21, "unit": "nM"}, {"measurement": "blood vessels / redness in the wound site", "setting": "[4]; after about six weeks of treatment", "result": "overall reduction in blood vessels; also recorded: significantly less redness"}, {"measurement": "wound appearance compared to control pig", "setting": "[4]; after day six, systemic relaxin", "result": "healed faster, better"}, {"measurement": "visual wound assessment: share of times a relaxin treatment group was selected in the top three", "setting": "[4]; blinded neutral observers ranking the best three of six groups of wound pictures", "result": 89, "unit": "%"}, {"measurement": "cosmetic ranking of wound/scar areas, irrigation vs topical only", "setting": "[4]; dermatologist cosmetic score, weeks 4 and 6, irrigation relaxin treatment vs only topical relaxin treatment", "result": "ranked higher overall"}, {"measurement": "adverse effects associated with relaxin treatment (histopathology)", "setting": "[4]; pig, in vivo", "result": "no adverse effects"}, {"measurement": "necrosis or inflammation associated with relaxin treatment", "setting": "[4]; pig, in vivo", "result": "no necrosis or inflammation"}, {"measurement": "scar visibility at wound site", "setting": "[4]; six weeks of treatment, systemic relaxin vs placebo", "result": "the scar is invisible; also recorded: no scar was visible"}, {"measurement": "scarring on histopathological slide", "setting": "[4]; six weeks, relaxin treatment vs no relaxin treatment (severe scarring)", "result": "mild scarring"}, {"measurement": "collagen organization (objective collagen scoring system, redness ratio)", "setting": "[4]; [5]", "result": "significantly better collagen organization"}, {"measurement": "composite wound healing score (three point scale, collagen appearance)", "setting": "[4]; [5]", "result": "significantly improved"}, {"measurement": "chronic inflammation in wound sites (histology score)", "setting": "[4]; [6]", "result": "significantly reduced"}, {"measurement": "granulation tissue in wound sites (histology score)", "setting": "[4]; [6]", "result": "significantly reduced"}, {"measurement": "wound healing, systemic vs topical administration", "setting": "[4]; systemic treatment compared to topical administration", "result": "better wound healing"}, {"measurement": "wound healing compared to placebo", "setting": "[4]; topical-only treatment (low and high dose, sections 5 and 6 vs section 4), six weeks", "result": "improved wound healing"}]}
